Assay results from PubChem BioAssay (NCI).
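1) Cells in 96-well plates. 2) Compound, 48 h, 5 concentrations. 3) Linear interpolation between surrounding doses. 4) Unreached endpoint = highest concentration. The concentration for full growth arrest is given as TGI.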

Experiments:
Assay in all cases: inhibition of tumour cell growth, NCI panel, 48 h
U251 CNS = tested on: U251 CNS
SK-MEL-28 melanoma = tested on: SK-MEL-28 melanoma
786-0 renal = tested on: 786-0 renal
A498 renal = tested on: A498 renal
UACC-62 melanoma = tested on: UACC-62 melanoma
RPMI-8226 leukemia = tested on: RPMI-8226 leukemia
HOP-62 NSCLC = tested on: HOP-62 NSCLC
SNB-75 CNS = tested on: SNB-75 CNS
DLD-1 colon = tested on: DLD-1 colon
DMS 114 small cell lung = tested on: DMS 114 small cell lung
NCI-H23 lung = tested on: NCI-H23 lung
CAKI-1 renal = tested on: CAKI-1 renal
CCRF-CEM leukemia = tested on: CCRF-CEM leukemia
LOX IMVI melanoma = tested on: LOX IMVI melanoma
NCI-H226 lung = tested on: NCI-H226 lung
UO-31 renal = tested on: UO-31 renal
ACHN renal = tested on: ACHN renal
IGROV1 ovarian = tested on: IGROV1 ovarian
NCI-H522 lung = tested on: NCI-H522 lung
HOP-18 NSCLC = tested on: HOP-18 NSCLC
MOLT-4 leukemia = tested on: MOLT-4 leukemia
OVCAR-4 ovarian = tested on: OVCAR-4 ovarian
OVCAR-8 ovarian = tested on: OVCAR-8 ovarian
RXF-631 renal = tested on: RXF-631 renal
MALME-3M melanoma = tested on: MALME-3M melanoma
LXFL 529 NSCLC = tested on: LXFL 529 NSCLC
RXF 393 renal = tested on: RXF 393 renal
EKVX NSCLC = tested on: EKVX NSCLC
A549 NSCLC = tested on: A549 NSCLC
SF-539 CNS = tested on: SF-539 CNS
TK-10 renal = tested on: TK-10 renal
HL-60(TB) leukemia = tested on: HL-60(TB) leukemia
HCT-116 colon = tested on: HCT-116 colon
OVCAR-3 ovarian = tested on: OVCAR-3 ovarian
SF-295 CNS = tested on: SF-295 CNS
HT29 colon = tested on: HT29 colon
HOP-92 NSCLC = tested on: HOP-92 NSCLC
SK-OV-3 ovarian = tested on: SK-OV-3 ovarian
HCT-15 colon = tested on: HCT-15 colon
SN12C renal = tested on: SN12C renal
NCI-H460 lung = tested on: NCI-H460 lung
M14 melanoma = tested on: M14 melanoma
SNB-78 CNS = tested on: SNB-78 CNS
SK-MEL-5 melanoma = tested on: SK-MEL-5 melanoma
KM12 colon = tested on: KM12 colon
KM20L2 colon = tested on: KM20L2 colon
COLO 205 colon = tested on: COLO 205 colon
SF-268 CNS = tested on: SF-268 CNS
OVCAR-5 ovarian = tested on: OVCAR-5 ovarian
SR leukemia = tested on: SR leukemia
M19-MEL melanoma = tested on: M19-MEL melanoma
SNB-19 CNS = tested on: SNB-19 CNS
UACC-257 melanoma = tested on: UACC-257 melanoma
SW-620 colon = tested on: SW-620 colon
DMS 273 small cell lung = tested on: DMS 273 small cell lung
HCC-2998 colon = tested on: HCC-2998 colon
K-562 leukemia = tested on: K-562 leukemia
SK-MEL-2 melanoma = tested on: SK-MEL-2 melanoma

O=C(COc1ccc(/C=C/C(=O)c2ccc(Cl)cc2)cc1)Nc1c(Cl)cccc1Cl
TGI (U251 CNS): > 100 µM
TGI (SK-MEL-28 melanoma): > 100 µM
TGI (786-0 renal): > 100 µM
TGI (A498 renal): > 100 µM
TGI (UACC-62 melanoma): > 100 µM
TGI (RPMI-8226 leukemia): > 100 µM
TGI (HOP-62 NSCLC): > 100 µM
TGI (SNB-75 CNS): > 100 µM
TGI (DLD-1 colon): > 100 µM
TGI (DMS 114 small cell lung): > 100 µM
TGI (NCI-H23 lung): > 100 µM
TGI (CAKI-1 renal): > 100 µM
TGI (CCRF-CEM leukemia): > 100 µM
TGI (LOX IMVI melanoma): > 100 µM
TGI (NCI-H226 lung): > 100 µM
TGI (UO-31 renal): > 100 µM
TGI (ACHN renal): > 100 µM
TGI (IGROV1 ovarian): > 100 µM
TGI (NCI-H522 lung): > 100 µM
TGI (HOP-18 NSCLC): > 100 µM
TGI (MOLT-4 leukemia): > 100 µM
TGI (OVCAR-4 ovarian): > 100 µM
TGI (OVCAR-8 ovarian): > 100 µM
TGI (RXF-631 renal): > 100 µM
TGI (MALME-3M melanoma): > 100 µM
TGI (LXFL 529 NSCLC): > 100 µM
TGI (RXF 393 renal): > 100 µM
TGI (EKVX NSCLC): > 100 µM
TGI (A549 NSCLC): > 100 µM
TGI (SF-539 CNS): > 100 µM
TGI (TK-10 renal): > 100 µM
TGI (HL-60(TB) leukemia): > 100 µM
TGI (HCT-116 colon): > 100 µM
TGI (OVCAR-3 ovarian): > 100 µM
TGI (SF-295 CNS): > 100 µM
TGI (HT29 colon): > 100 µM
TGI (HOP-92 NSCLC): > 100 µM
TGI (SK-OV-3 ovarian): > 100 µM
TGI (HCT-15 colon): > 100 µM
TGI (SN12C renal): > 100 µM
TGI (NCI-H460 lung): > 100 µM
TGI (M14 melanoma): > 100 µM
TGI (SNB-78 CNS): > 100 µM
TGI (SK-MEL-5 melanoma): > 100 µM
TGI (KM12 colon): > 100 µM
TGI (KM20L2 colon): > 100 µM
TGI (COLO 205 colon): > 100 µM
TGI (SF-268 CNS): > 100 µM
TGI (OVCAR-5 ovarian): > 100 µM
TGI (SR leukemia): > 100 µM
TGI (M19-MEL melanoma): > 100 µM
TGI (SNB-19 CNS): > 100 µM
TGI (UACC-257 melanoma): > 100 µM
TGI (SW-620 colon): > 100 µM

CC1CC2OC(=O)CC2C[C@@H]1O[Si](C)(C)C(C)(C)C (stereo not given in full)
TGI (786-0 renal): > 100 µM
TGI (UACC-62 melanoma): > 100 µM
TGI (DMS 273 small cell lung): > 100 µM
TGI (HCC-2998 colon): > 100 µM
TGI (RPMI-8226 leukemia): 51.8 µM
TGI (HOP-62 NSCLC): > 100 µM
TGI (SNB-75 CNS): > 100 µM
TGI (DLD-1 colon): > 100 µM
TGI (DMS 114 small cell lung): 89.4 µM
TGI (NCI-H23 lung): > 100 µM
TGI (CAKI-1 renal): > 100 µM
TGI (CCRF-CEM leukemia): > 100 µM
TGI (LOX IMVI melanoma): > 100 µM
TGI (UO-31 renal): > 100 µM
TGI (ACHN renal): > 100 µM
TGI (IGROV1 ovarian): > 100 µM
TGI (HOP-18 NSCLC): > 100 µM
TGI (MOLT-4 leukemia): 56.7 µM
TGI (OVCAR-4 ovarian): > 100 µM
TGI (OVCAR-8 ovarian): > 100 µM
TGI (RXF-631 renal): > 100 µM
TGI (MALME-3M melanoma): > 100 µM
TGI (LXFL 529 NSCLC): > 100 µM
TGI (K-562 leukemia): > 100 µM
TGI (EKVX NSCLC): > 100 µM
TGI (SK-MEL-2 melanoma): > 100 µM
TGI (A549 NSCLC): > 100 µM
TGI (SF-539 CNS): > 100 µM
TGI (TK-10 renal): > 100 µM
TGI (HL-60(TB) leukemia): 45.5 µM
TGI (HCT-116 colon): > 100 µM
TGI (OVCAR-3 ovarian): > 100 µM
TGI (SF-295 CNS): > 100 µM
TGI (HT29 colon): > 100 µM
TGI (HOP-92 NSCLC): 34.7 µM
TGI (SK-OV-3 ovarian): > 100 µM
TGI (HCT-15 colon): > 100 µM
TGI (SN12C renal): > 100 µM
TGI (NCI-H460 lung): > 100 µM
TGI (M14 melanoma): > 100 µM
TGI (SNB-78 CNS): > 100 µM
TGI (SK-MEL-5 melanoma): 97.4 µM
TGI (KM12 colon): > 100 µM
TGI (KM20L2 colon): > 100 µM
TGI (COLO 205 colon): > 100 µM
TGI (SF-268 CNS): > 100 µM
TGI (OVCAR-5 ovarian): > 100 µM
TGI (M19-MEL melanoma): > 100 µM
TGI (SNB-19 CNS): > 100 µM
TGI (UACC-257 melanoma): > 100 µM
TGI (SW-620 colon): > 100 µM
